Assay results: ChEMBL document CHEMBL4420075, “Seriniquinones, melanoma-specific anticancer agents” (2016)

Experiments:
Assay type in all cases: functional
[1] = system: SK-MEL-28; test: Growth inhibition of human SK-MEL-28 cells assessed as cell growth incubated for 48 hrs by sulforhodamine B assay; design: concentration or dose not given beside the values
[2] = system: UO-31; test: Growth inhibition of human UO31 cells assessed as cell growth incubated for 48 hrs by sulforhodamine B assay; design: concentration or dose not given beside the values
[3] = system: NCI-H322M; test: Growth inhibition of human NCI-H322M cells assessed as cell growth incubated for 48 hrs by sulforhodamine B assay; design: scale not given: the % may be the effect or the level left
[4] = system: HCT-15; test: Growth inhibition of human HCT15 cells assessed as cell growth incubated for 48 hrs by sulforhodamine B assay; design: scale not given: the % may be the effect or the level left
[5] = system: M14; test: Growth inhibition of human M14 cells assessed as cell growth incubated for 48 hrs by sulforhodamine B assay; design: concentration or dose not given beside the values
[6] = system: HL-60(TB); test: Growth inhibition of human HL-60(TB) cells assessed as cell growth incubated for 48 hrs by sulforhodamine B assay; design: concentration or dose not given beside the values
[7] = system: HT-29; test: Growth inhibition of human HT-29 cells assessed as cell growth incubated for 48 hrs by sulforhodamine B assay; design: concentration or dose not given beside the values
[8] = system: A498; test: Growth inhibition of human A498 cells assessed as cell growth incubated for 48 hrs by sulforhodamine B assay; design: concentration or dose not given beside the values
[9] = system: SK-MEL-5; test: Growth inhibition of human SK-MEL-5 cells assessed as cell growth incubated for 48 hrs by sulforhodamine B assay; design: concentration or dose not given beside the values
[10] = system: SF-268; test: Growth inhibition of human SF268 cells assessed as cell growth incubated for 48 hrs by sulforhodamine B assay; design: concentration or dose not given beside the values
[11] = system: OVCAR-8; test: Growth inhibition of human OVCAR8 cells assessed as cell growth incubated for 48 hrs by sulforhodamine B assay; design: concentration or dose not given beside the values
[12] = system: SW-620; test: Growth inhibition of human SW620 cells assessed as cell growth incubated for 48 hrs by sulforhodamine B assay; design: concentration or dose not given beside the values
[13] = system: DU-145; test: Growth inhibition of human DU145 cells assessed as cell growth incubated for 48 hrs by sulforhodamine B assay; design: concentration or dose not given beside the values
[14] = system: OVCAR-4; test: Growth inhibition of human OVCAR4 cells assessed as cell growth incubated for 48 hrs by sulforhodamine B assay; design: concentration or dose not given beside the values
[15] = system: NCI/ADR-RES; test: Growth inhibition of human NCI/ADR-RES cells assessed as cell growth incubated for 48 hrs by sulforhodamine B assay; design: concentration or dose not given beside the values
[16] = system: NCI-H226; test: Growth inhibition of human NCI-H226 cells assessed as cell growth incubated for 48 hrs by sulforhodamine B assay; design: concentration or dose not given beside the values
[17] = system: LOX IMVI; test: Growth inhibition of human LOXIMVI cells assessed as cell growth incubated for 48 hrs by sulforhodamine B assay; design: concentration or dose not given beside the values
[18] = system: IGROV-1; test: Growth inhibition of human IGROV1 cells assessed as cell growth incubated for 48 hrs by sulforhodamine B assay; design: scale not given: the % may be the effect or the level left
[19] = system: OVCAR-3; test: Growth inhibition of human OVCAR3 cells assessed as cell growth incubated for 48 hrs by sulforhodamine B assay; design: concentration or dose not given beside the values
[20] = system: RPMI-8226; test: Growth inhibition of human RPMI8226 cells assessed as cell growth incubated for 48 hrs by sulforhodamine B assay; design: concentration or dose not given beside the values
[21] = system: TK-10; test: Growth inhibition of human TK10 cells assessed as cell growth incubated for 48 hrs by sulforhodamine B assay; design: concentration or dose not given beside the values
[22] = system: Hs-578T; test: Growth inhibition of human Hs 578T cells assessed as cell growth incubated for 48 hrs by sulforhodamine B assay; design: concentration or dose not given beside the values
[23] = system: K562; test: Growth inhibition of human K562 cells assessed as cell growth incubated for 48 hrs by sulforhodamine B assay; design: concentration or dose not given beside the values
[24] = system: RXF 393; test: Growth inhibition of human RXF393 cells assessed as cell growth incubated for 48 hrs by sulforhodamine B assay; design: concentration or dose not given beside the values
[25] = system: U-251; test: Growth inhibition of human U251 cells assessed as cell growth incubated for 48 hrs by sulforhodamine B assay; design: concentration or dose not given beside the values
[26] = system: UACC-62; test: Growth inhibition of human UACC62 cells assessed as cell growth incubated for 48 hrs by sulforhodamine B assay; design: concentration or dose not given beside the values
[27] = system: SK-OV-3; test: Growth inhibition of human SKOV3 cells assessed as cell growth incubated for 48 hrs by sulforhodamine B assay; design: concentration or dose not given beside the values
[28] = system: MOLT-4; test: Growth inhibition of human MOLT4 cells assessed as cell growth incubated for 48 hrs by sulforhodamine B assay; design: concentration or dose not given beside the values
[29] = system: HCT-116; test: Growth inhibition of human HCT116 cells assessed as cell growth incubated for 48 hrs by sulforhodamine B assay; design: concentration or dose not given beside the values
[30] = system: CCRF-CEM; test: Growth inhibition of human CCRF-CEM cells assessed as cell growth incubated for 48 hrs by sulforhodamine B assay; design: concentration or dose not given beside the values
[31] = system: ACHN; test: Growth inhibition of human ACHN cells assessed as cell growth incubated for 48 hrs by sulforhodamine B assay; design: scale not given: the % may be the effect or the level left
[32] = system: SK-MEL-2; test: Growth inhibition of human SK-MEL-2 cells assessed as cell growth incubated for 48 hrs by sulforhodamine B assay; design: concentration or dose not given beside the values
[33] = system: MCF7; test: Growth inhibition of human MCF7 cells assessed as cell growth incubated for 48 hrs by sulforhodamine B assay; design: concentration or dose not given beside the values
[34] = system: SNB-19; test: Growth inhibition of human SNB19 cells assessed as cell growth incubated for 48 hrs by sulforhodamine B assay; design: concentration or dose not given beside the values
[35] = system: COLO 205; test: Growth inhibition of human COLO205 cells assessed as cell growth incubated for 48 hrs by sulforhodamine B assay; design: concentration or dose not given beside the values
[36] = system: SN12C; test: Growth inhibition of human SN12C cells assessed as cell growth incubated for 48 hrs by sulforhodamine B assay; design: concentration or dose not given beside the values
[37] = system: KM12; test: Growth inhibition of human KM12 cells assessed as cell growth incubated for 48 hrs by sulforhodamine B assay; design: concentration or dose not given beside the values
[38] = system: HOP-62; test: Growth inhibition of human HOP62 cells assessed as cell growth incubated for 48 hrs by sulforhodamine B assay; design: concentration or dose not given beside the values
[39] = system: A549; test: Growth inhibition of human A549/ATCC cells assessed as cell growth incubated for 48 hrs by sulforhodamine B assay; design: concentration or dose not given beside the values
[40] = system: SNB-75; test: Growth inhibition of human SNB75 cells assessed as cell growth incubated for 48 hrs by sulforhodamine B assay; design: concentration or dose not given beside the values
[41] = system: NCI-H522; test: Growth inhibition of human NCI-H522 cells assessed as cell growth incubated for 48 hrs by sulforhodamine B assay; design: concentration or dose not given beside the values
[42] = system: NCI-H460; test: Growth inhibition of human NCI-H460 cells assessed as cell growth incubated for 48 hrs by sulforhodamine B assay; design: concentration or dose not given beside the values
[43] = system: PC-3; test: Growth inhibition of human PC3 cells assessed as cell growth incubated for 48 hrs by sulforhodamine B assay; design: concentration or dose not given beside the values
[44] = system: SF-539; test: Growth inhibition of human SF539 cells assessed as cell growth incubated for 48 hrs by sulforhodamine B assay; design: scale not given: the % may be the effect or the level left
[45] = system: CAKI-1; test: Growth inhibition of human Caki1 cells assessed as cell growth incubated for 48 hrs by sulforhodamine B assay; design: concentration or dose not given beside the values
[46] = system: MDA-MB-435; test: Growth inhibition of human MDA-MB-435 cells assessed as cell growth incubated for 48 hrs by sulforhodamine B assay; design: concentration or dose not given beside the values
[47] = system: Malme-3M; test: Growth inhibition of human MALME-3M cells assessed as cell growth incubated for 48 hrs by sulforhodamine B assay; design: scale not given: the % may be the effect or the level left
[48] = system: SR; test: Growth inhibition of human SR cells assessed as cell growth incubated for 48 hrs by sulforhodamine B assay; design: concentration or dose not given beside the values
[49] = system: T47D; test: Growth inhibition of human T47D cells assessed as cell growth incubated for 48 hrs by sulforhodamine B assay; design: concentration or dose not given beside the values
[50] = system: BT-549; test: Growth inhibition of human BT549 cells assessed as cell growth incubated for 48 hrs by sulforhodamine B assay; design: concentration or dose not given beside the values
[51] = system: HCC 2998; test: Growth inhibition of human HCC2998 cells assessed as cell growth incubated for 48 hrs by sulforhodamine B assay; design: concentration or dose not given beside the values
[52] = system: OVCAR-5; test: Growth inhibition of human OVCAR5 cells assessed as cell growth incubated for 48 hrs by sulforhodamine B assay; design: scale not given: the % may be the effect or the level left
[53] = system: MDA-MB-468; test: Growth inhibition of human MDA-MB-468 cells assessed as cell growth incubated for 48 hrs by sulforhodamine B assay; design: concentration or dose not given beside the values
[54] = system: 786-0; test: Growth inhibition of human 786-0 cells assessed as cell growth incubated for 48 hrs by sulforhodamine B assay; design: concentration or dose not given beside the values
[55] = system: HOP-92; test: Growth inhibition of human HOP92 cells assessed as cell growth incubated for 48 hrs by sulforhodamine B assay; design: concentration or dose not given beside the values
[56] = system: SF-295; test: Growth inhibition of human SF295 cells assessed as cell growth incubated for 48 hrs by sulforhodamine B assay; design: concentration or dose not given beside the values
[57] = system: NCI-H23; test: Growth inhibition of human NCI-H23 cells assessed as cell growth incubated for 48 hrs by sulforhodamine B assay; design: concentration or dose not given beside the values
[58] = system: MDA-MB-231; test: Growth inhibition of human MDA-MB-231 cells assessed as cell growth incubated for 48 hrs by sulforhodamine B assay; design: concentration or dose not given beside the values
[59] = system: UACC-257; test: Growth inhibition of human UACC257 cells assessed as cell growth incubated for 48 hrs by sulforhodamine B assay; design: concentration or dose not given beside the values

`O=c1c2ccccc2c(=O)c2c1sc1c(=O)c3ccc(CCCO)cc3c(=O)c12` gave an Activity [1] of -91.59%, an Activity [2] of -96.45% and an Activity [3] of -96.79%. It also gave an Activity [4] of -68.1%, an Activity [5] of -94.97% and an Activity [6] of -39.5%. For the same molecule, the Activity [7] was -50.87%, the Activity [8] was -93% and the Activity [9] was -100%. For the same molecule, the Activity [10] was -52.35%, the Activity [11] was -30.24% and the Activity [12] was -71.53%. It also gave an Activity [13] of -98.88%, an Activity [14] of -100% and an Activity [15] of -22.56%. It also gave an Activity [16] of -53.49%, an Activity [17] of -80.49% and an Activity [18] of -77.75%. It also gave an Activity [19] of -43.56%, an Activity [20] of -37.51% and an Activity [21] of -94.99%. It also gave an Activity [22] of -11.73%, an Activity [23] of -26.48% and an Activity [24] of -77.25%. For the same molecule, the Activity [25] was -92.1%, the Activity [26] was -88.56% and the Activity [27] was -74.3%. It also gave an Activity [28] of -48.47%, an Activity [29] of -56.49% and an Activity [30] of -42.44%. The Activity [31] was -100%, the Activity [32] was -72.58% and the Activity [33] was -57.56%. It also gave an Activity [34] of -83.74%, an Activity [35] of -100% and an Activity [36] of -85.36%. For the same molecule, the Activity [37] was -60.46%, the Activity [38] was -100% and the Activity [39] was -66.71%. The Activity [40] was -96.48%, the Activity [41] was -73.7% and the Activity [42] was -65.79%. For the same molecule, the Activity [43] was -10.27%, the Activity [44] was -100% and the Activity [45] was -39.14%. For the same molecule, the Activity [46] was -94.78%, the Activity [47] was -94.59% and the Activity [48] was -22.18%. The Activity [49] was -45.39%, the Activity [50] was -95.56% and the Activity [51] was -89.21%. The Activity [52] was -95.91%, the Activity [53] was -69.73% and the Activity [54] was -90.2%. For the same molecule, the Activity [55] was -25.51%, the Activity [56] was -93.12% and the Activity [57] was -39.8%. It also gave an Activity [58] of -36.34% and an Activity [59] of -98.14%.
